From paper PMC7270110, “Labeled oxytocin administered via the intranasal route reaches the brain in rhesus macaques” (Nature Communications, 2020)
Read-outs that look alike come from different tables or passages of the source.

Assay: Plasma concentration of d5OT by LC-MS/MS after IN or IV d5OT
Format: in vivo, rhesus macaques (Macaca mulatta)
Settings: for level at 1 h: rhesus monkey, plasma, 60 min, present study
Experimental: The six monkeys were dosed once a week, for 4 consecutive weeks, with each DOSE–ROUTE condition of d5OT (40 IU IN, 40 IU IV, 80 IU IN, or 80 IU IV). Each DOSE–ROUTE condition was assigned using a Latin square randomization (Table 4). Sessions were separated by at least 6 days. During each session, CSF (750 µl) and blood (5 ml) samples were drawn immediately prior to (T = 0) and following (T = 60 and 120 min) each administration of d5OT.
Monkeys were divided into three groups, each with two monkeys; each group received the following in a terminal study at the 5th week: Group 1 (Monkeys ID# 1 and ID# 5) received 40 IU of d5OT IN, Group 2 received 80 IU of d5OT IN (Monkeys ID# 2 and ID# 4) and Group 3 received 80 IU of d5OT IV (Monkeys ID# 3 and ID# 6). Animals were perfused on average, 140 ± 7 (mean ± SD) min after d5OT administration (range = 135–149 min) (Table 4). Plasma and CSF were drawn just before administration of d5OT, at the midpoint between d5OT administration and perfusion (~60 min post-d5OT administration), and just before perfusion.
Chemicals: An unlabeled standard for d0OT and deuterated standard for d5OT were purchased from Sigma-Aldrich (St. Louis, MO); d10OT was purchased for use as an internal standard through a custom order from Cayman Chemical (Ann Arbor, MI). All other reagents were commercially available, and we purchased LC or MS grade chemicals when available. Plasma and CSF sample preparation for LC–MS/MS analysis. CSF and plasma samples were collected as described above. […]
Solid-phase extraction (SPE) columns (Strata-X-Drug B, 60 mg/6 ml, Phenomenex, Torrance, CA) were conditioned prior to use by adding 2 ml of methanol, followed by 2 ml of water, and 2 ml of 0.2 M ammonium acetate (pH 3.0) in water; each was allowed to flow through by gravity before the next was added. […] After a 15 min incubation at 4 °C, plates were filtered into microtiter plates (Shimadzu, Kyoto, Japan) using a positive pressure manifold (8 min at 5 psi, followed by 15 s at 15 psi; Biotage, Uppsala, Sweden), and analyzed. […]

Concentrations of d5OT in the plasma (after 40 IU IN, all concentrations, LOQ 100 pg/ml): below the level of quantification
level at 1 h (80 IU IN condition, read-out: Plasma d5OT): 0.284 ± 0.288 ng/mL
level at 1 h (IV condition, read-out: Mean plasma concentration of d5OT): 1.99 ± 0.476 ng/mL
Structure (SMILES): CC[C@H](C)[C@@H]1NC(=O)[C@H](Cc2ccc(O)cc2)NC(=O)[C@@H](N)CSSC[C@@H](C(=O)N2CCC[C@H]2C(=O)N[C@@H](CC(C)C)C(=O)NCC(N)=O)NC(=O)[C@H](CC(N)=O)NC(=O)[C@H](CCC(N)=O)NC1=O [d5OT]
